By Km is commonly meant the substrate concentration at which the rate is half of its maximum.

In this assay the test system is Leishmania NMT. Nature of the assay: Substrate characteristics in Leishmania NMT. In kind it is biochemical. To be noted: for Km: read-out: KM as substrate; for substrate activity: compound 10 tested up to 40 μM. The protocol:
Unexpectedly, the electron maps indicated a mixture of ligand structures such that ∼20% of the electron density represents a N-myristoylated 10 product complex with the CoA by-product in LmNMT (Fig. 2D). This is the only structural evidence for a product complex in any N-myristoyltransferase, and captures and supports the proposed mechanism of action of NMT just prior to regeneration of the active enzyme. Kinetic experiments were performed to study 10 both as a potential substrate and as an NMT inhibitor. […] The N-myristoylation of 10 observed above therefore presumably occurs within the crystal where all reagents are present at high effective concentrations, and turnover is blocked by limited egress of products.
To probe the degree to which 10 acts as a true peptidomimetic, we investigated the potential to switch from inhibitor to a peptidomimetic substrate. […] In native NMT substrates, N-terminal Gly is preferred to the exclusion of all other residues, with relatively non-sterically demanding residues such as alanine. […]
[Substrate] (µM) [S b[Substrate] (µM) tt ]
Hs pp60src(2-9) Compound 10 Compound 27 Compound 28
Figure S4: Substrate characteristics of H. sapiens p60src(2-16), compound 10 and modified
inhibitors 27 and 28 in Leishmania NMT.

Consider `NCCCC[C@H](NC(=O)[C@H](CO)NC(=O)CCCCCCNC(=O)CN)C(=O)NCCC1CCCCC1` [Compound 27], for which the substrate activity entry was “substrate”. Moreover, where the note is “Leishmania NMT”, the Vmax as substrate worked out at 6596.4 ± 281.4 RFU.s-1 and the Km is 1.3 µM.

With `C[C@H](N)C(=O)NCCCCCCC(=O)N[C@@H](CO)C(=O)N[C@@H](CCCCN)C(=O)NCCC1CCCCC1` [Compound 28], the substrate activity entry is recorded as “no detectable substrate activity”. In addition, for the setting “Leishmania NMT”, the KM as substrate result is “Not measurable” and the Vmax as substrate entry was “Not measurable”.

GSNKSKPK-NH2 [reference compound]: where the note is “Leishmania NMT”, the Vmax as substrate is on record as 113616.7 ± 3962.0 RFU.s-1 and the Km came to 22.6 µM.

The values are drawn from publication PMC4224572, “Peptidomimetic inhibitors of N-myristoyltransferase from human malaria and leishmaniasis parasites” (Organic & Biomolecular Chemistry, 2014).
